The values that follow come from PubChem BioAssay AID1159558 (GlaxoSmithKline (GSK), 2015).

Active and inactive are the calls of the source.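 How the source made its calls: active means IC50 against T. cruzi CYP51 below a set limit; inactive means the rest.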

For the assay, the target named is Sterol 14-alpha demethylase (Trypanosoma cruzi (strain CL Brener)) (UniProt Q7Z1V1). The assay can be described thus: TcCYP51 inhibitors, dose response, mechanism study for T. cruzi antiparasitic project, biochemical, recombinant enzyme (AID 1159558).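 Further: enzyme in bacterial membranes with Anopheles gambiae CYP reductase and cytochrome b5 partners.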 To be noted: recombinant T. cruzi CYP51, BOMCC fluorescence.
Sequence of Sterol 14-alpha demethylase (Trypanosoma cruzi (strain CL Brener)) (Q7Z1V1 whole entry, looked up): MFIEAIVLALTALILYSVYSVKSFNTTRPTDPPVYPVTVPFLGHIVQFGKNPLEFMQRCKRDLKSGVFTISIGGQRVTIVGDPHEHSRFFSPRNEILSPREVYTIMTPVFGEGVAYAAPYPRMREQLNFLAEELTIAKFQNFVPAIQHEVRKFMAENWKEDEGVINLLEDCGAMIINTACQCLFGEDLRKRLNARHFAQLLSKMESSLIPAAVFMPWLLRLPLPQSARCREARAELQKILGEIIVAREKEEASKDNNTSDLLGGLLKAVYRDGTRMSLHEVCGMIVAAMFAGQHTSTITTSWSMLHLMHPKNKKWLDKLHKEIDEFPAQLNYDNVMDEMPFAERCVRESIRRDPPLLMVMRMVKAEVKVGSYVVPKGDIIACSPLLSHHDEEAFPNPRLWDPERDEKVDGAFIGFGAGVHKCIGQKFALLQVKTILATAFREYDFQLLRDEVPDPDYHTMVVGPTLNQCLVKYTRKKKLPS
Regarding `NC(=O)c1ccsc1NC(=O)c1ccc([N+](=O)[O-])s1`, the IC50 was > 100 µM (inactive).

As to `O=c1[nH]ccc2ccc(-c3ccncc3)cc12`, the IC50 was 0.016 µM.

Consider `CN(CC1CCCO1)S(=O)(=O)c1ccc(C(=O)Nc2nc(-c3ccccn3)cs2)cc1` (stereo not drawn), for which the IC50 was 7.9 µM.

Take `CC(=O)Nc1cccc(Nc2ncnc3nc[nH]c23)c1`: the IC50 is > 100 µM (inactive).

Take `Cn1cncc1CN1CCC2(CC1)COC(Cc1ccccc1)C2` (stereo not drawn): the IC50 was 1 µM.

As to `Cc1nn(-c2nc(N)nc(-c3ccccn3)n2)c(C)c1Cc1ccccc1`, the half-maximal inhibitory concentration (IC50) was 63 µM.

For `CCc1nn(-c2ncc(F)c(NC(C)C)n2)c(N)c1C1CCCCC1`, the IC50 was > 100 µM (inactive).

Take `O=C(CCCn1cnc([N+](=O)[O-])n1)Nc1cccc(Cl)c1`: the IC50 is 50 µM.

Turning to `COc1ccc(Oc2ccc(C(C)N(C)c3ncc4c(N)nc(N)nc4n3)cc2)cc1` (stereo not drawn), the IC50 is 1.6 µM.

As for `Cc1ccc(NC(=O)C(C)n2nc([N+](=O)[O-])c(Br)c2C)cc1Cl` (stereo not drawn), the IC50 was > 100 µM (inactive).

For `Cc1ccc(NC(=O)c2ccc(Cl)c(NC(=O)c3ccc([N+](=O)[O-])cc3)c2)cc1`, the IC50 is > 100 µM (inactive).

As to `OCCCNc1nc(Nc2ccncc2)nc2ccccc12`, the IC50 was > 100 µM (inactive).

For `COc1ccc2nc(N(Cc3cccnc3)C(=O)C3CCC3)sc2c1`, the concentration for half-maximal inhibition (IC50) was 0.063 µM.

For `Cc1ccc(C)c(OC2CCN(C(=O)C(C)n3ccnc3)CC2)c1` (stereo not drawn), the IC50 is 0.1 µM.

Regarding `Clc1ccc(OCCN2CCCCC2c2cccnc2)c(Cl)c1` (stereo not drawn), the IC50 was 0.063 µM.

On to `CCn1c(-c2nonc2N)nc2c([C@@H](C)O)ncc(O[C@H](CN)c3ccccc3)c21`, for which the concentration for half-maximal inhibition (IC50) was 25 µM.

As for `Cc1nc(C(=O)Nc2ccc3c(c2)OCO3)nn1-c1ccc(F)cc1`, the half-inhibitory concentration (IC50) was 40 µM.

As for `CC(C)(C)CC(=O)NCc1noc(COc2ccccc2)n1`, the IC50 was 50 µM.

`CS(=O)(=O)NC1CCC(Nc2ncc(Br)c(Nc3ccccc3C(N)=O)n2)CC1` (stereo not drawn): the IC50 was > 100 µM (inactive).

Consider `Cc1c(C(=O)NCCCCn2ccnc2)oc2c(C)cccc12`, for which the 50% inhibitory concentration (IC50) is 0.1 µM.

On to `Cc1ccc2ccc(C(Nc3ccccn3)c3cccnc3)c(O)c2n1` (stereo not drawn), for which the IC50 is 0.05 µM.

In the case of `Cc1nn(-c2nc3ccccc3s2)c2c1C(c1ccc(OCC(N)=O)cc1)SCC(=O)N2` (stereo not drawn), the IC50 is > 100 µM (inactive).

Consider `COc1ccc(-c2ccc3nnc(-c4ccc(O)c(OC)c4)n3c2)cn1`, for which the IC50 was > 100 µM (inactive).

With `CCN(CC)c1nc(N(C)C)nc2c1CN(Cc1ccccc1)CC2`, the IC50 is 10 µM.

Take `O=C(NCCc1csc(-c2cccc(F)c2)n1)c1ccco1`: the IC50 is > 100 µM (inactive).

As to `COc1ccc(-c2cnc(C)o2)cc1S(=O)(=O)Nc1ccc(C)cc1C`, the half-inhibitory concentration (IC50) is 25 µM.

Consider `CCOc1cnn(C)c(=O)c1Nc1ccc(C(=O)NCc2ccc(F)cc2)cc1`, for which the half-maximal inhibitory concentration (IC50) is 4 µM.

`CC(C)C[C@H](NC(=O)c1csc(-c2cccs2)n1)C(=O)NC1(C#N)CC1`: the IC50 is > 100 µM (inactive).

For the compound `Cc1c(C(C)NC(=O)Nc2cccc(Cl)c2)sc2ncnn12` (stereo not drawn), the IC50 was 0.13 µM.

`COc1ccc2ncc(=O)n(CCN3CC[C@H](NCc4ncc(Cl)c5[nH]ncc45)[C@H](O)C3)c2n1`: the IC50 was > 100 µM (inactive).

In the case of `Cc1nnnn1-c1cccc(C(=O)N2CCC[C@@]3(C)c4ncncc4CCC23)c1` (stereo partly drawn), the IC50 is 25 µM.

Turning to `O=C(Cn1cnc2c(-c3ccccc3)csc2c1=O)N1CCCCC1`, the half-maximal inhibitory concentration (IC50) is 40 µM.

As for `O=C(CN(Cc1ccccn1)Cc1ccccn1)NCc1ccc2c(c1)OCO2`, the IC50 is 100 µM.

Consider `Cc1cc(C)c(C#N)c(SCC(=O)c2ccc3c(c2)OCO3)n1`, for which the IC50 is > 100 µM (inactive).

For the compound `COc1ccc(-c2csc(NC(=O)c3ccc([N+](=O)[O-])s3)n2)cc1OC`, the IC50 is > 100 µM (inactive).

On to `CCN(Cc1cccs1)C(=O)CSc1nnc(-c2ccc3c(c2)OCO3)o1`, for which the half-maximal inhibitory concentration (IC50) is 7.9 µM.

Consider `O=C(NC(c1ccc(Cl)cc1)c1cnccn1)C1CCN(C(=O)Nc2cccc(C(F)(F)F)c2)CC1` (stereo not drawn), for which the IC50 was 0.13 µM.

For `Cc1cc(C)n(-c2nc(NC(C)C)nc(NC(C)(C)C)n2)n1`, the IC50 was > 100 µM (inactive).

`CS(=O)(=O)c1cccc(CNC(=O)c2cncc(N3CCN(c4ccc(F)cc4)CC3)c2)c1`: the IC50 is 13 µM.

As for `O=C(Nc1ccc(-c2nc3ccccc3c(=O)[nH]2)cc1)c1cccs1`, the IC50 is > 100 µM (inactive).

Consider `c1ccc(Nc2nc3ccccc3[nH]2)nc1`, for which the IC50 is > 100 µM (inactive).

Take `Cc1cc(N(C)C)nc2ccc(Cc3cnc(N)nc3N)cc12`: the IC50 was > 100 µM (inactive).

As to `Cc1nc(-c2nc(NCc3ccc(Cl)cc3)c3cccnc3c2O)n[nH]1`, the half-maximal inhibitory concentration (IC50) was 16 µM.

As to `Cn1c(CC(=O)NNC(=O)c2ccc3ccccc3n2)nc2ccccc21`, the half-maximal inhibitory concentration (IC50) was 32 µM.

As for `Cc1cccc(N2CCCN(Cc3c[nH]c4ccccc34)CC2)n1`, the IC50 is > 100 µM (inactive).

For `O=C(c1cccc(Nc2ncc(-c3ccc4c(c3)OCO4)cn2)c1)N1CCOCC1`, the IC50 was 20 µM.

As to `Cn1nccc1NC(=O)Cn1ccc(-c2ccncc2)n1`, the IC50 was 6.3 µM.

For the compound `O=C(Cc1ccc2c(c1)CCC2)Nc1n[nH]c(-c2ccccn2)n1`, the half-maximal inhibitory concentration (IC50) is 2.5 µM.

On to `COc1ccnc2[nH]cc(-c3cc(C(=O)N[C@H](CO)c4ccccc4)co3)c12`, for which the IC50 was 0.79 µM.

Take `CC(C)c1cc(C(=O)N2CCCC(c3cc4ncccc4[nH]3)C2)on1` (stereo not drawn): the concentration for half-maximal inhibition (IC50) was 50 µM.

Regarding `COc1ccc(-c2cc(C)no2)cc1S(=O)(=O)Nc1ccc(F)c(Cl)c1`, the IC50 is > 100 µM (inactive).

With `CCn1nccc1CN(C)C(=O)C=Cc1ccc(Cl)cc1`, the IC50 was 0.32 µM.

Take `Cc1ccc(CNC2CCN(C[C@@H]3Cn4c(=O)ccc5ccc(=O)n3c54)CC2)cc1F`: the IC50 was > 100 µM (inactive).

For the compound `COc1ccc(S(=O)(=O)Nc2ccc(C(=O)Nc3nc(-c4ccccn4)cs3)cc2)cc1`, the half-maximal inhibitory concentration (IC50) was 0.4 µM.

`CN(C)CCOc1ccc(N2CCN(S(=O)(=O)c3ccc(Cl)cc3)CC2)cc1`: the IC50 was 25 µM.

As to `Fc1ccc(Nc2nc(-c3ccccn3)cs2)cc1`, the concentration for half-maximal inhibition (IC50) was 16 µM.

Take `Cc1nn2c(NCCCO)c3c(nc2c1-c1cccs1)CCC3`: the IC50 was 25 µM.

Consider `COc1ccccc1C=CCN1C[C@H]2CCC[C@@H](C1)C2(O)c1cccnc1` (stereo partly drawn), for which the IC50 is 0.13 µM.

In the case of `COc1ccc(CN2CCCCC2c2nc(-c3cccnc3)no2)cc1` (stereo not drawn), the IC50 was 0.2 µM.

Regarding `O=C1CN(Cc2ccco2)C2CS(=O)(=O)CC2N1c1ccc(Cl)cc1` (stereo not drawn), the IC50 is > 100 µM (inactive).

In the case of `CC(C)Oc1cccc(N2CCC(C(=O)N3CCCN(C(C)C)CC3)CC2)c1`, the IC50 is > 100 µM (inactive).

For `O=C(Cn1cnc2cc([N+](=O)[O-])ccc2c1=O)NCCc1ccc(Cl)cc1Cl`, the IC50 is > 100 µM (inactive).

As for `COc1cc(Nc2nccc(Nc3onc(C)c3C)n2)cc(S(=O)(=O)C2CCOCC2)c1`, the 50% inhibitory concentration (IC50) is 7.9 µM.

Consider `O=C1CCCCCC1(Cc1cnc[nH]1)c1ccc(Cl)cc1Cl` (stereo not drawn), for which the IC50 was 0.1 µM.

In the case of `COc1ccc(NS(=O)(=O)c2cc(NC(=O)c3ccc([N+](=O)[O-])s3)ccc2OC)cc1`, the 50% inhibitory concentration (IC50) is 1 µM.

For `O=C(c1ccccc1)N1CCC(C(=O)N2CCC(Oc3ccccc3Cl)CC2)CC1`, the half-maximal inhibitory concentration (IC50) is 20 µM.

With `CNC(=O)C1Cc2ccccc2N1C(=O)Cc1ccc(OC)cc1` (stereo not drawn), the IC50 is > 100 µM (inactive).

`COc1ncc(-c2ccc3nccc(-c4ccncc4)c3c2)cc1NS(C)(=O)=O`: the 50% inhibitory concentration (IC50) was 79 µM.

Turning to `CN(Cc1ccc(F)cc1)c1ccc(OCC(=O)N2CCCCC2c2cccnc2)nn1` (stereo not drawn), the half-inhibitory concentration (IC50) is 0.05 µM.

Turning to `Nc1nonc1-c1nc2cncc(C(=O)N3CC[C@H](N)C3)c2n1CC1CC1`, the IC50 is 13 µM.

Consider `O=C(NCc1ccncc1)c1ccccc1N1CCCN(C(=O)Cc2ccc(F)c(F)c2)CC1`, for which the 50% inhibitory concentration (IC50) is 0.079 µM.

As to `CC(=O)NCCNc1cc(-c2ccnc(Nc3cccc(Cl)c3)n2)ccn1`, the half-maximal inhibitory concentration (IC50) was 5 µM.

For `CCOc1ccc(Nc2ccc(S(=O)(=O)N3CCN(C)CC3)cc2[N+](=O)[O-])cc1OCC`, the half-inhibitory concentration (IC50) is 32 µM.

Consider `NS(=O)(=O)c1ccc(Nc2ncc3cccc(OC4CCNCC4)c3n2)cc1`, for which the IC50 was > 100 µM (inactive).

For `COc1ccc(OC)c(NC(=O)c2ccc([N+](=O)[O-])o2)c1`, the concentration for half-maximal inhibition (IC50) is 10 µM.

As to `O=C(NCCc1csc(-c2ccc(F)cc2)n1)c1cccs1`, the half-inhibitory concentration (IC50) is 25 µM.

For the compound `c1cncc(CN(Cc2ccco2)Cc2cn[nH]c2-c2cccs2)c1`, the IC50 is 0.079 µM.

Turning to `O=C1NCc2cccc(Nc3nc(NC4CCC(O)CC4)ncc3Br)c21` (stereo not drawn), the IC50 was > 100 µM (inactive).

Turning to `CC(=Cc1ccccc1)CN1CCC(=O)N(Cc2cccnc2)CC1`, the IC50 is 0.1 µM.

As for `N#Cc1cnc(Nc2cccc(CCN3CCOCC3)c2)nc1Nc1ccccc1C(N)=O`, the IC50 is 10 µM.

Turning to `CS(=O)(=O)NC1CCC(Oc2cc3cnccc3cc2-c2ccsc2)CC1` (stereo not drawn), the concentration for half-maximal inhibition (IC50) is 0.025 µM.

For `COc1ccc(C2CC(c3ccccc3Cl)=NN2C(=O)CNC(=O)C2CCC2)cc1` (stereo not drawn), the IC50 is 50 µM.

`O=C(Nc1cccc(S(=O)(=O)Nc2ccc(Br)cc2)c1)c1ccc([N+](=O)[O-])s1`: the IC50 was 2.5 µM.

Regarding `COc1ccc2c(Cl)c(C(=O)N3CCC3)sc2c1Cl`, the IC50 is > 100 µM (inactive).

Consider `Cc1nccn1C1CCCN(C(=O)c2cc3c(F)cccc3s2)C1` (stereo not drawn), for which the IC50 is 50 µM.

`Cc1nn(C2CCS(=O)(=O)C2)c(C)c1CN(C)C(=O)C=Cc1sc2ccccc2c1Cl` (stereo not drawn): the IC50 was 0.032 µM.

For the compound `Cc1sc(C)c(C(F)(F)F)c1CNCCCNc1cc(=O)c2ccccc2[nH]1`, the IC50 is 20 µM.

For the compound `CNC(=O)C1Cc2ccccc2N1C(=O)COc1cccc(OC)c1` (stereo not drawn), the IC50 is 100 µM.

As to `COc1ccc(Nc2nc(-c3ccccn3)cc(N3CCCC(O)C3)n2)cc1` (stereo not drawn), the IC50 is 50 µM.

With `COCCn1c(-c2ccccc2)cnc1NCc1ccccc1OC`, the IC50 was 7.9 µM.

As to `C=CCOCC1Cn2nc([N+](=O)[O-])nc2O1` (stereo not drawn), the IC50 is > 100 µM (inactive).

For the compound `Cn1c(CN2CCN(c3ncc(C(F)(F)F)cc3Cl)CC2)nc2ccncc21`, the 50% inhibitory concentration (IC50) was 0.079 µM.

For `Nc1cc(-c2ccc3ncnc(N4CCOCC4)c3c2)cnc1N`, the IC50 is 79 µM.
